Experimental data from patent US20050043262A1, “Novel specific inhibitor of the cyclin kinase inhibitor p21Waf1/Cip1 and methods of using the inhibitor” (priority 2000, published 2005).

Tests used:
A10 VSM cells = test: [3H]thymidine incorporation (DNA synthesis) in A10 VSM cells; format: cell-based, rat
bovine VSM cells = test: PDGF-BB-stimulated DNA synthesis in bovine VSM cells; format: cell-based; settings: bovine VSM cell line, various concentrations
From the text: Cell culture, DNA synthesis, and proliferation assays: Cultures of both A10 and A7r5 rat aortic VSM cells were obtained from American Type Culture Collection (Rockville Md.). Bovine aortic smooth muscle cells were supplied by Martha O'Donnell (O'Donnell and Owen, 1986 Proc Natl. Acad. Sci.US.A., 83, p. 6132-6136). All of the cell lines were maintained as described (Weiss et al., 1998 Am. J. Physiol., 274, p. C1521-C1529) and were used between passages 15 and 25. The cells were growth-arrested by placing them in serum-free quiescence medium, exposed to growth factors as indicated, and [^3H]thymidine incorporation assessed as previously described (Weiss and Nuccitelli, 1992a J. Biol. Chem., 267, p. 5608-5613). Cell proliferation was assessed by counting of adherent cells on 4 representative fields under 100× magnification in each of 3 wells per experimental condition.
Antisense techniques were employed to examine the dependence of G1-phase progression on p21^Waf1/Cip1 in the VSM cell lines (Crooke, 1993 Antisense research and applications. Boca Raton, CRC.). […] DNA synthesis was assessed by [^3H]-thymidine incorporation and is expressed as mean ± s.e.m. of three wells per data point. […] After 18 hours of PDGF incubation, the cells were counted by examining representative fields at 100× magnification. The average number of cells in 4 random fields in each well was determined.

p21^Waf1/Cip1 = test: PMA-induced p21 level by Western blot in A431 cells; format: cell-based, human; settings: 200 nM oligodeoxynucleotide, PMA 100 ng/ml up to 6 hours
Method: Western blots: Cells were grown to confluence in 6 cm culture dishes and serum deprived. After transfection and or treatment with appropriate agonist, the cells were washed with phosphate-buffered saline and lysed in lysis buffer and the supernatant was Western blotted as described (Weiss and Nuccitelli, 1992 J. Biol. Chem., 267, p. 5608-5613).
PMA is a potent inducer of p21^Waf1/Cip1 in a variety of different cell lines (Huang et al., 1995 Proc. Natl. Acad. Sci. US.A., 92, p. 4793-4797; Michieli et al., 1994 Cancer Res., 54, p. 3391-3395) and was employed to examine p21^Waf1/Cip1 levels after antisense transfection and confirm efficacy of translation to attenuate p21^Waf1/Cip1 levels. A431 cells were transfected with 200 nM antisense p21^Waf1/Cip1 (SEQ. ID NO.:1) or sense p21^Waf1/Cip1 oligodeoxynucleotide (SEQ. ID NO.:2). After overnight incubation in serum-free medium, the cells were stimulated with PMA (100 ng/ml) for the times indicated, lysed, and the lysates were Western blotted with p21^Waf1/Cip1 or α-actin antibody.

caspase-3 = test: Caspase-3 activity (CaspACE colorimetric assay) in MCF-7 cells; format: cell-based, human; settings: MCF-7 cells (lack caspase-3)
Method: Caspase-3 Activity: The CaspACE Assay System was used to measure the activity of caspase-3. After incubation under appropriate conditions, the cells were lysed in CaspACE lysis buffer, and protein concentration was determined by dye reagent protein assay (Bio-Rad, Hercules, Calif.). […] The lysates with equal protein amounts were incubated with DEVD-p-nitroaniline substrate for 4 hours at 37° C. The reaction products were detected at 405 nm using a PowerWave X automated plate reader (Bio-Tek Instruments).
As another confirmatory test for antisense p21 ODN-mediated apoptosis, caspase-3 activation was assessed. Members of the caspase family of proteases are essential components of an evolutionarily conserved cell death pathway in multicellular eukaryotes and play key roles in inflammation and apoptosis in mammalian cells. Caspase-3 has substrate specificity for the amino acid sequence DEVD (Asp-Glu-Val-Asp) and is inhibited by the tetrapeptide inhibitor Ac-DEVD-CHO; its catalytic activity was assessed colorimetrically using the labeled Ac-DEVD-pNA substrate. […] T47D cells were grown to confluence, serum starved for 24 hours, and lipofected with antisense p21 or control ODN at the concentrations indicated. Caspase-3 activity was assessed as described in “Capase-3 Activity” using a colorimetric method. […]

MCF7 cells = test: [3H]thymidine incorporation in MCF7 cells; format: cell-based, human; settings: 200 nM, serum 24 hours
Method: Cell Culture and DNA Synthesis: T47D (ductal carcinoma) and MCF7 (adenocarcinoma) human breast cancer cell lines were obtained from the American Type Culture Collection. All cell lines were maintained according to vendors' recommendations. The cells were growth arrested by placing them in serum-free quiescence media and exposed to 10% serum-containing media as indicated. [^3H]Thymidine incorporation was assessed as described previously (Weiss, R. H., and Nuccitelli, R., J. Biol. Chem., 267: 5608-5613, 1992).
Apoptotic cells will not incorporate thymidine into DNA during S phase, but [^3H]thymidine incorporation experiments will not distinguish between G1→S arrest and apoptosis. Serum-starved cells were transfected with 200 nM antisense p21 and control ODN, stimulated with serum-containing media, and examined for their ability to incorporate [^3H]thymidine into DNA. […] Antisense p21 attenuates [^3H]thymidine incorporation. MCF7 and T47D cells were grown to confluence, serum starved for 24 hours, and lipofected with antisense p21 (AS) or control (SC) ODN at the concentrations indicated (in nM). […] Serum was added for 24 hours, and the cells were incubated with [^3H]thymidine for the last 6 hours. DNA synthesis was assessed by [^3H]thymidine incorporation and is expressed as mean +SD of 3 wells/data point. *, P <0.05 compared with antisense p21 ODN transfection. […]

Substance | PDGF-stimulated DNA synthesis (A10 VSM cells; A10 VSM cells, 200 nM oligodeoxynucleotide lipofected, PDGF-BB 30 ng/ml 18 hours) | DNA synthesis relative to control oligodeoxynucleotide (A10 VSM cells; A10 VSM cells, 10% serum) | PDGF-stimulated DNA synthesis, dose/response (A10 VSM cells; A10 VSM cells, increasing oligodeoxynucleotide concentration up to 200 nM) | effects of irradiation on cell cycle arrest (DNA synthesis) (A10 VSM cells; VSM cells, 1 to 12 Gy, maximum potentiation at 8 Gy) | potentiation of irradiation effect at 12 Gy (A10 VSM cells; VSM cells, 12 Gy) | potentiation of Adriamycin growth inhibition (A10 VSM cells; VSM cells, 1000 to 2000 ng/ml Adriamycin) | cell growth (DNA synthesis) stimulated with PDGF-BB and serum (A10 VSM cells; VSM cells, similar oligodeoxynucleotide concentrations (FIG. 9d)) | DNA synthesis in non-irradiated cells (A10 VSM cells; confluent VSM cells in serum-containing medium) | PDGF-stimulated DNA synthesis (bovine VSM cells) | PMA-induced p21^Waf1/Cip1 levels (p21^Waf1/Cip1) | caspase-3 cleavage (activity) (caspase-3) | [3H]thymidine incorporation (DNA incorporation) (MCF7 cells)
5′-GACATCACCAGGATCGGACAT-3′ | Significant inhibition | markedly inhibited | inhibition of DNA synthesis with increasing concentration | potentiated at higher doses of radiation | did not reach statistical significance | significant potentiation | inhibited | marked inhibition | a similar effect | significant attenuation |  | 
5′-ATC-CCC-AGC-CGG-TTC-TGA-CAT-3′ (antisense ATCCCCAGCCGGTTCTGACAT; listed as DNA, chemistry not fully specified) [antisense p21 ODN] |  |  |  |  |  |  |  |  |  |  | did not show significant caspase-3 cleavage products | significant attenuation
